Laboratory results as given in patent US20090060851A1, “USE OF IDEBENONE FOR THE PREPARATION OF A TOPICALLY-APPLIED DEPIGMENTATION COMPOSITION AND CORRESPONDING COMPOSITION” (priority 2005, published 2009).

Key:
Format in all cases: cell-based, human
[1] = test system: SK-MEL-28; assay: Melanin content determination (OD400) in SK-MEL cells; conditions: for OD400 (melanin) / OD400 expressed as percentage of control (melanin): assayed day 5
Protocol: (§1) In vitro determinations were performed following the method devised by Dooley et al. (Skin Pharmacol. 1994; 7:188-200) in order to evaluate the capacity of idebenone to inhibit melanogenesis, according to the process described below:
(§2) Cells: The study was carried out using a cell line derived from human melanoma, provided by ABAC (Asociación Banco Argentino de Células—Cell Bank of Argentina), with melanin synthesis capability (SK-MEL-28, ATCC origin). The cells were grown in plastic culture bottles or in 24-well plastic dishes in a modified Eagle medium (DMEM) supplemented with 10% fetal bovine serum (FBS) and were maintained at 37° C. in a 5% CO2 atmosphere.
(§3) Study of in vitro compounds: SK-MEL cells detached with trypsin were seeded on plastic 24-well dishes (density of 1×10^5 cells per well) and incubated for 24 hours in modified Eagle medium (DMEM) supplemented with 10% fetal bovine serum (FBS) prior to treating with the compound to be evaluated. After 24 hours have lapsed, the medium was replaced with 990 μl of fresh medium. 10 μl of sterile vehicle (50% propylene glycol, 30% ethanol and 20% distilled water) containing different concentrations of the compounds to be evaluated were added to this fresh medium.
(§4) Decimal dilutions of each compound in the sterile vehicle were prepared in order to obtain final concentrations of the compound to be studied ranging between 1.000 and 0.01 μg/ml. […]
[…] The cells were thus continuously exposed to the compounds under study for the 5 days the culture lasted. All the concentrations of the compounds were studied in triplicate, comparing the mean of the 3 wells treated with the compounds with those treated with the vehicle alone.
(§5) Melanin content determination: The SK-MEL cell melanin content was determined after stirring the culture medium and washing the cells with PBS. The cells were then lysated by means of adding 1 ml of 1N NaOH to each well and repeated manual pipetting. The raw cell extract was analyzed using a spectrophotometer at 400 and 475 nm to determine the melanin and dopaquinone content, respectively. The results were expressed as a percentage of the cell cultures treated with the vehicle.

[2] = test system: SK-MEL-28; assay: Dopaquinone content determination (OD475) in SK-MEL cells; conditions: assayed day 5
Protocol: as §1, §2, §3, §4
[…] […] All the concentrations of the compounds were studied in triplicate, comparing the mean of the 3 wells treated with the compounds with those treated with the vehicle alone.
as §5

[3] = test system: SK-MEL-28; assay: Cell number quantitation with violet crystal
Protocol: Cells: The study was carried out using a cell line derived from human melanoma, provided by ABAC (Asociación Banco Argentino de Células—Cell Bank of Argentina), with melanin synthesis capability (SK-MEL-28, ATCC origin). […] Study of in vitro compounds: […] After 24 hours have lapsed, the medium was replaced with 990 μl of fresh medium. 10 μl of sterile vehicle (50% propylene glycol, 30% ethanol and 20% distilled water) containing different concentrations of the compounds to be evaluated were added to this fresh medium. […] On the fourth day, the cells were not treated, and the remaining adherent cells were assayed on the fifth day according to the methods described below. The cells were thus continuously exposed to the compounds under study for the 5 days the culture lasted. All the concentrations of the compounds were studied in triplicate, comparing the mean of the 3 wells treated with the compounds with those treated with the vehicle alone. Cell number quantitation with violet crystal: A stain with a violet crystal aqueous solution was used for the purpose of determining the number of cells adhering to the plastic surviving in vitro treatment by means of indirect methods. […] The dishes were stained for 5 minutes at room temperature on a rotary platform, with gentle stirring. Then the excess colorant was decanted by turning the dish over and the entire dish was submerged 4 times in distilled water in a suitable container. After rinsing, the dishes were turned over and allowed to drip on absorbent paper until the excess water was completely removed. […] The plates were finally placed on a rotary agitator for 30 minutes at room temperature. […] In order to determine the fraction of cells surviving treatment at a specific concentration of the experimental agent, the OD590 of the treated wells (average of three measurements) was divided by the OD590 of the wells used with a control vehicle (average of three measurements).

[4] = dilution −1, treated daily 3 days
[5] = dilution −2, treated daily 3 days
[6] = dilution −3, treated daily 3 days
[7] = dilution −4, treated daily 3 days
[8] = dilution −5, treated daily 3 days

## Oc1ccc(O)cc1 [hydroquinone, 1,4-benzenediol]
[1]; SK-MEL-28, Example 5
  Melanin synthesis inhibition: stops being effective
[1]; [4]
  OD400 (melanin): 0.007
  OD400 expressed as percentage of control (melanin): 21%
[1]; [5]
  OD400 (melanin): 0.012
  OD400 expressed as percentage of control (melanin): 36%
[1]; [6]
  OD400 (melanin): 0.021
  OD400 expressed as percentage of control (melanin): 64%
[1]; [7]
  OD400 (melanin): 0.036
  OD400 expressed as percentage of control (melanin): 109%
[1]; [8]
  OD400 (melanin): 0.034
  OD400 expressed as percentage of control (melanin): 103%
[2]; [4]
  OD475 (dopaquinone): 0.0001
  OD475 expressed as percentage of control (dopaquinone): 0%
[2]; [5]
  OD475 (dopaquinone): 0.0013
  OD475 expressed as percentage of control (dopaquinone): 8%
[2]; [6]
  OD475 (dopaquinone): 0.0083
  OD475 expressed as percentage of control (dopaquinone): 51%
[2]; [7]
  OD475 (dopaquinone): 0.0163
  OD475 expressed as percentage of control (dopaquinone): 100%
[2]; [8]
  OD475 (dopaquinone): 0.0163
  OD475 expressed as percentage of control (dopaquinone): 100%
[3]; SK-MEL-28, high concentrations
  Toxicity for cells: toxicity for hydroquinone was higher
[3]; dilution −1, percentage of control vehicle
  Percentage of viable cells: 34%
[3]; dilution −2, percentage of control vehicle
  Percentage of viable cells: 58%
[3]; dilution −3, percentage of control vehicle
  Percentage of viable cells: 77%
[3]; dilution −4, percentage of control vehicle
  Percentage of viable cells: 89%
[3]; dilution −5, percentage of control vehicle
  Percentage of viable cells: 95%
